From PubChem BioAssay AID743429 (Vanderbilt Specialized Chemistry Center, 2014)
The source made the active and inactive calls. No rule for the calls is given here.

Molecular target: Metabotropic glutamate receptor 1 (Homo sapiens) (UniProt Q13255)
Assay: off-target activity check on mGlu1 receptor – cell-based, calcium fluorescence, agonist curve fold shift, selectivity assay for mGlu8/mGlu7 PAM project, profiling panel (AID 743429)
Conditions: mGlu1 cells, Fluo-4 calcium flux, at 10 µM

Chain of Metabotropic glutamate receptor 1 (Homo sapiens) (Q13255 whole entry, looked up): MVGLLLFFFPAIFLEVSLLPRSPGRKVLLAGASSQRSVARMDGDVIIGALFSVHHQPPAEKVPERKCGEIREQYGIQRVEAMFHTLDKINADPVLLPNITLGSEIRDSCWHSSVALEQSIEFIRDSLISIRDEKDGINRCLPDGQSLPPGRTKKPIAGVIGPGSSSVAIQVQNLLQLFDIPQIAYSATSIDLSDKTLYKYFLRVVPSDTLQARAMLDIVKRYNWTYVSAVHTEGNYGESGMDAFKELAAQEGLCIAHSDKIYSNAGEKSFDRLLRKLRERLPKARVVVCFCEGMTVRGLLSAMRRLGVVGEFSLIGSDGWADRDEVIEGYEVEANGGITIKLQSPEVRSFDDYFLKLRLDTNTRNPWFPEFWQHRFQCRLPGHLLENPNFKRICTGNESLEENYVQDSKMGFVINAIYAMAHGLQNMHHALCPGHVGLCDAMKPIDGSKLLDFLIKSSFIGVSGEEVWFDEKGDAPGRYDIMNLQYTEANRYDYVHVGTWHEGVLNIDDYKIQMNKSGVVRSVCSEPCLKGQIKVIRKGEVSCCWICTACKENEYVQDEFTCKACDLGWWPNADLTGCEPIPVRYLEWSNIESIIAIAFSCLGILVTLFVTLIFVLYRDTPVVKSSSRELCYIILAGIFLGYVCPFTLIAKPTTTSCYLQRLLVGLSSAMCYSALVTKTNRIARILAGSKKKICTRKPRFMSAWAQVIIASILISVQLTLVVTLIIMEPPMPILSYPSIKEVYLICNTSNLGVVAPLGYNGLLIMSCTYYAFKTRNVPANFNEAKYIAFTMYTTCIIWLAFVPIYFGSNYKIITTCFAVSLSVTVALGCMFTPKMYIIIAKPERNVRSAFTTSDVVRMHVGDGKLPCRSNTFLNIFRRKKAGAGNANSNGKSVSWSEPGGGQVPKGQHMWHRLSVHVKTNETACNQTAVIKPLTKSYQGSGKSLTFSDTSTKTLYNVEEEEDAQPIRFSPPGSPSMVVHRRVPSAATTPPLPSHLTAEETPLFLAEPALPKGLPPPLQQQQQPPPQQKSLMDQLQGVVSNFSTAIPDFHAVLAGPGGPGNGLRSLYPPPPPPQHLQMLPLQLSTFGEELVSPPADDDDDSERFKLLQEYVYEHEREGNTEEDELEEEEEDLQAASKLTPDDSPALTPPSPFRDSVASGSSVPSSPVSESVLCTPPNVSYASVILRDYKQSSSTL

fold shift: 1.04 (inactive)
Compound: COC(=O)c1ccc(-n2c(C)cc(C(=O)CSc3ccc(NC(C)=O)cc3)c2C)cc1
